Experimental data published in patent US20030064954A1, “Cationic amphiphilic 1,4-dihydropyridine derivatives useful for delivery of nucleotide containing compounds” (priority 2000, published 2003).
Values belong to the compound of their own block, whether it stands above or below them.

Tests used:
[1] = system: CV-1P (African monkey green kidney fibroblasts cells); experiment: In vitro transfection of plasmid DNA, β-galactosidase activity per well; type: cell-based; details: CVI-P; for transfection, result in words: entry spans the charge ratios 8-0.5
Protocol: Transfer of plasmid DNA by various compounds was investigated by using CV-1P (African monkey green kidney fibroblasts cells) and D407 (human retinal pigment epithelial) cells.
The cells were cultured in Dulbecco's modified Eagle's medium (DMEM, Gibco), supplemented with 10% fetal bovine serum (FBS), penicillin/streptomycin (100 units/ml and 100 μg/ml respectively) and 2 mM L-glutamine for D 407 cell line. Cell cultures were maintained at 37° C. in a 7% CO2/air incubator. The cells were collected, counted and seeded in growth medium (100 μl) into 96-well culture plate, 20 000 cells per well. One day later the medium was replaced with fresh medium without serum (150 μl)
In the case of confluent CV1-P cells the medium (with of without serum) was changed on fourth day of cell growth before the transfection.
The complexes at different derivative/DNA charge ratios for transfection procedure were prepared just before use in 50 mM MES—50 mM HEPES—75 mM NaCl buffer, pH 7.2 in separate 96 well plates. One hour after changing the serum-free medium with 10% serum the complexes were added to the cells at […]. Dose of DNA per well was 0.6 μg. After 5 h the complexes were removed, the cells were washed with PBS, and the normal growth medium was added. After 45 h of incubation at 37° C. the cells were lysed with 2% Triton X 100, twice deep frozen and the β-galactosidase activity in each well was determined spectrofotometrically with ELx800 automated microplate reader (Bio-Tex Instruments Inc., Winooski, Vt. USA) by monitoring the hydrolysis of o-nitrophenylgalactopyranoside (oNPG) at 405 nm. Purified β-galactosidase from E.coli was used to construct a standard curve and to calculate […] activity in the transfected cells. […] Transfection efficiencies are given as percentage in comparison to transfection efficiency of Lipofectin^R.

plasmid DNA = experiment: DNA condensation/complexation, EtBr displacement assay; type: binding
Protocol: The ability of the cationic amphiphiles to condense DNA was assessed with an EtBr displacement assay. Briefly, in 96 well plates plasmid DNA (0.6 μg per well) was reacted with 0.002% EtBr in 20 mM HEPES—150 mM NaCl buffer, pH 7.4 and fluorescence intensity was measured at 530 nm (excitation) and 590 nm (emission). Intercalation of EtBr molecules between the base pairs of the DNA double helix results in increased fluorescence signal. Immediately thereafter, the cationic liposomes were added to form complexes at different +/−charge ratios and the quenching of fluorescence intensity of EtBr was monitored. Condensation of DNA upon complexation with liposomes results in the displacement of EtBr from DNA and in decreased fluorescence signal. Fluorescence was measured using FL 500 microplate fluorescence reader (Bio-Tek Instruments Inc., Winooski, Vt., USA).
The values are expressed as percentage of the maximum fluorescence signal when EtBr bound to DNA in the absence of an amphiphile. Each data point is from at least triplicate experiment ±S.D.

CVI-P cells = experiment: Cytotoxicity of amphiphile/DNA complexes, percentage of survived cells; details: for cell viable: 'at +/−', charge ratio not given
[2] = amphiphile/DNA +/− charge ratio 0.5
[3] = amphiphile/DNA +/− charge ratio 1
[4] = amphiphile/DNA +/− charge ratio 2
[5] = amphiphile/DNA +/− charge ratio 4
[6] = amphiphile/DNA +/− charge ratio 8

melting point: 224 to 227 °C
Structure (SMILES): Br.CCOC(=O)C1=C(C)NC(C)=C(C(=O)OCC)C1c1cc[n+](CC(=O)c2ccccc2)cc1.[Br-]

melting point: 159 to 165 °C
Structure (SMILES): Br.CCCCCCCCCCCCCCCC[n+]1cccc(C2C(C(=O)OC(C)CC)=C(C)NC(C)=C2C(=O)OC(C)CC)c1.[Br-] (centres unmarked)

melting point: 180 °C (dec.)
Structure (SMILES): Br.CCOC(=O)C[n+]1cccc(C2C(C(=O)OC)=C(C)NC(C)=C2C(=O)OC)c1.[Br-]

melting point: 166 to 169 °C
Structure (SMILES): CC1=C(C(=O)OC(C)(C)C)C(c2ccc[n+](C)c2)C(C(=O)OC(C)(C)C)=C(C)N1.I.[I-] [Example 2c, 3′,5′-Bis[(1,1-dimethylethoxy)carbonyl]-1′,4′-dihydro-1,2′,6′-trimethyl-3,4′-bipyridinium iodide]

melting point: 270 °C (dec.)
Structure (SMILES): CC1=C(C(=O)OC2CC3CCC2(C)C3(C)C)C(c2cc[n+](C)cc2)C(C(=O)OC2CC3CCC2(C)C3(C)C)=C(C)N1.I.[I-] (centres unmarked) [Example 2u, 3′,5′-Bis(bornyloxycarbonyl)-1′,4′-dihydro-1,2′,6′-trimethyl-4,4′-bipyridinium iodide]

melting point: 165 to 167 °C
Structure (SMILES): CCCCCCC[n+]1cccc(C2C(C(=O)OCC)=C(C)NC(C)=C2C(=O)OCC)c1.I.[I-] [Example 5a, 3′,5′-Bis(ethoxycarbonyl)-1-heptyl-1′,4′-dihydro-2′,6′-dimethyl-3,4′-bipyridinium iodide]

complexation, percentage of the maximum fluorescence signal when EtBr bound to DNA in the absence of an amphiphile (plasmid DNA; [2]): 93,2% | complexation, percentage of the maximum fluorescence signal when EtBr bound to DNA in the absence of an amphiphile (plasmid DNA; [3]): 83,2% | complexation, percentage of the maximum fluorescence signal when EtBr bound to DNA in the absence of an amphiphile (plasmid DNA; [4]): 76,7% | complexation, percentage of the maximum fluorescence signal when EtBr bound to DNA in the absence of an amphiphile (plasmid DNA; [5]): 74,6% | complexation, percentage of the maximum fluorescence signal when EtBr bound to DNA in the absence of an amphiphile (plasmid DNA; [6]): 74,7% | melting point: 143 to 146 °C
Structure (SMILES): CCCCCCCCCCCCCCCC(=O)OCCCOC(=O)C1=C(C)NC(C)=C(C(=O)OCCCOC(=O)CCCCCCCCCCCCCCC)C1c1ccc[n+](C)c1.I.[I-] [III, 1′,4′-Dihydro-1,2′,6′-trimethyl-3′,5′-bis[(3-palmitoyloxypropoxy)carbonyl]-3,4′-bipyridinium iodide]
transfection, result in words [1]: No signal | cytotoxicity as a percentage of survived cells (CVI-P cells; [2]): 87,86% | cytotoxicity as a percentage of survived cells (CVI-P cells; [3]): 81,86% | cytotoxicity as a percentage of survived cells (CVI-P cells; [4]): 72,04% | cytotoxicity as a percentage of survived cells (CVI-P cells; [5]): 54,84% | cytotoxicity as a percentage of survived cells (CVI-P cells; [6]): 68,47%

melting point: 156 to 159 °C
Structure (SMILES): CC1=C(C(=O)OC2CC(C)CCC2C(C)C)C(c2ccc[n+](C)c2)C(C(=O)OC2CC(C)CCC2C(C)C)=C(C)N1.I.[I-] (centres unmarked) [X, 1′,4′-Dihydro-3′,5′-bis(menthyloxycarbonyl)-1,2′,6′-trimethyl-3,4′-bipyridinium iodide]
transfection, result in words [1]: No signal | cell viable (CVI-P cells): 50%

melting point: 271 to 274 °C
Structure (SMILES): CC1=C(C(=O)OC2CC3CCC2(C)C3(C)C)C(c2ccc[n+](C)c2)C(C(=O)OC2CC3CCC2(C)C3(C)C)=C(C)N1.I.[I-] (centres unmarked) [XI, 3′,5′-Bis(bornyloxycarbonyl)-1′,4′-dihydro-1,2′,6′-trimethyl-3,4′-bipyridinium iodide]
transfection, result in words [1]: No signal | cell viable (CVI-P cells): 50%

Second part, the compound before the results:

Structure (SMILES): Br.CCCCCCCCCCCCCCCCOC(=O)C1=C(C)NC(C)=C(C(=O)OCCCCCCCCCCCCCCCC)C1c1ccc[n+](CC(=O)c2ccccc2)c1.[Br-]
melting point: 148 to 150 °C

Structure (SMILES): Br.CCOCCOC(=O)C1=C(C)NC(C)=C(C(=O)OCCOCC)C1c1ccc[n+](CC(=O)OCC)c1.[Br-]
melting point: 163 to 165 °C

Structure (SMILES): Br.CCCCCCCCCCCCCCCCOC(=O)C1=C(C)NC(C)=C(C(=O)OCCCCCCCCCCCCCCCC)C1c1ccc[n+](CC(=O)OCC)c1.[Br-]
melting point: 99 to 102 °C

Structure (SMILES): CCCCOC(=O)C1=C(C)NC(C)=C(C(=O)OCCCC)C1c1ccc[n+](C)c1.I.[I-] [Example 2a, 3′,5′-Bis(butoxycarbonyl)-1′,4′-dihydro-1,2′,6′-trimethyl-3,4′-bipyridinium iodide]
melting point: 161 to 164 °C

Structure (SMILES): CCOC(=O)C1=C(C)NC(C)=C(C(=O)OCC)C1c1cccc[n+]1C.I.[I-] [Example 2v, 3′,5′-Bis(ethoxycarbonyl)-1′,4′-dihydro-1,2′,6′-trimethyl-2,4′-bipyridinium iodide]
melting point: 197 to 199 °C

Structure (SMILES): CCCOCCOC(=O)C1=C(C)NC(C)=C(C(=O)OCCOCCC)C1c1ccc[n+](C)c1.I.[I-] [VIII, 1′,4′-Dihydro-1,2′,6′-trimethyl-3′,5′-bis[(2-propoxyethoxy)-carbonyl]-3,4′-bipyridinium iodide]
melting point: 59 to 61 °C

Structure (SMILES): Br.CCCCCCCCC[n+]1cccc(C2C(C(=O)OCC)=C(C)NC(C)=C2C(=O)OCC)c1.[Br-] [XIII, 3′,5′-Bis(ethoxycarbonyl)-1′,4′-dihydro-2′,6′-dimethyl-1-nonyl-3,4′-bipyridinium bromide]
transfection, result in words [1]: No signal | melting point: 142 to 143 °C (dec.)

Structure (SMILES): Br.CCCCCCCCCCCCCCOC(=O)C1=C(C)NC(C)=C(C(=O)OCCCCCCCCCCCCCC)C1c1ccc[n+](CCCCCCCCC)c1.[Br-] [XIV, 1′,4′-Dihydro-2′,6′-dimethyl-1-nonyl-3′,5′-bis(tetradecyloxycarbonyl)-3,4′-bipyridinium bromide]
transfection efficiency [1, 2]: 0,75 β-galactosidase units per well | transfection efficiency [1, 3]: 3,38 β-galactosidase units per well | transfection efficiency [1, 4]: 1,5 β-galactosidase units per well | complexation, percentage of the maximum fluorescence signal when EtBr bound to DNA in the absence of an amphiphile (plasmid DNA; [2]): 100% | complexation, percentage of the maximum fluorescence signal when EtBr bound to DNA in the absence of an amphiphile (plasmid DNA; [3]): 96,2% | complexation, percentage of the maximum fluorescence signal when EtBr bound to DNA in the absence of an amphiphile (plasmid DNA; [4]): 91,03% | complexation, percentage of the maximum fluorescence signal when EtBr bound to DNA in the absence of an amphiphile (plasmid DNA; [5]): 88,9% | complexation, percentage of the maximum fluorescence signal when EtBr bound to DNA in the absence of an amphiphile (plasmid DNA; [6]): 93,7% | melting point: 124 to 126 °C (dec.) | cytotoxicity as a percentage of survived cells (CVI-P cells; [2]): 103,98% | cytotoxicity as a percentage of survived cells (CVI-P cells; [3]): 93,16% | cytotoxicity as a percentage of survived cells (CVI-P cells; [4]): 51,04% | cytotoxicity as a percentage of survived cells (CVI-P cells; [5]): 34,5% | cytotoxicity as a percentage of survived cells (CVI-P cells; [6]): 44,62%

Structure (SMILES): Br.CCCCCCCCCCCCCCCC[n+]1cccc(C2C(C(=O)OCC)=C(C)NC(C)=C2C(=O)OCC)c1.[Br-] [XV, 3′,5′-Bis (ethoxycarbonyl)-1-hexadecyl-1′,4′-dihydro-2′,6′-dimethyl-3,4′-bipyridinium bromide]
transfection, result in words [1]: No signal | melting point: 135 to 136 °C

Structure (SMILES): Br.CCCCCCCCCCCCCCCC[n+]1cccc(C2C(C(=O)OCCOCCC)=C(C)NC(C)=C2C(=O)OCCOCCC)c1.[Br-] [XVI, 1-Hexadecyl-1′,4′-dihydro-2′,6′-dimethyl-3′,5′-bis[(2-propoxyethoxy)carbonyl]-3,4′-bipyridinium bromide]
transfection, result in words [1]: No signal | melting point: 93 to 96 °C | cell viable (CVI-P cells): 50%

Structure (SMILES): Br.CCCCCCCCCCCCCCCC[n+]1cccc(C2C(C(=O)OC3CC(C)CCC3C(C)C)=C(C)NC(C)=C2C(=O)OC2CC(C)CCC2C(C)C)c1.[Br-] (centres unmarked) [XVIII, 1-Hexadecyl-1′,4′-dihydro-3′,5′-bis(menthyloxycarbonyl)-2′,6′-dimethyl-3,4′-bipyridinium bromide]
complexation, percentage of the maximum fluorescence signal when EtBr bound to DNA in the absence of an amphiphile (plasmid DNA; [2]): 97,5% | complexation, percentage of the maximum fluorescence signal when EtBr bound to DNA in the absence of an amphiphile (plasmid DNA; [3]): 90,8% | complexation, percentage of the maximum fluorescence signal when EtBr bound to DNA in the absence of an amphiphile (plasmid DNA; [4]): 82,6% | complexation, percentage of the maximum fluorescence signal when EtBr bound to DNA in the absence of an amphiphile (plasmid DNA; [5]): 78,5% | complexation, percentage of the maximum fluorescence signal when EtBr bound to DNA in the absence of an amphiphile (plasmid DNA; [6]): 79,6% | melting point: 115 to 117 °C | cytotoxicity as a percentage of survived cells (CVI-P cells; [2]): 85,15% | cytotoxicity as a percentage of survived cells (CVI-P cells; [3]): 83,94% | cytotoxicity as a percentage of survived cells (CVI-P cells; [4]): 76,51% | cytotoxicity as a percentage of survived cells (CVI-P cells; [5]): 9,08% | cytotoxicity as a percentage of survived cells (CVI-P cells; [6]): 3,05%
